Measurements published in the supplement of paper PMC10307832.

Tests used:
Experiment in all cases: relative viability (nuclei count vs DMSO), 5 days (fraction); higher = more cells survive
AZ505 + Palbociclib = compound: C1CCC(CC1)N(CCNCCC2=C3C(=C(C=C2)O)NC(=O)CO3)C(=O)CCNCCC4=CC(=C(C=C4)Cl)Cl [AZ505] + CC(=O)c1c(C)c2cnc(Nc3ccc(N4CCNCC4)cn3)nc2n(C2CCCC2)c1=O [Palbociclib] (partner 0.5 µM)
Summary of the method: (§1)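 Relative viability divides the nuclei count in treated wells by that in vehicle wells. Lung cancer cell lines were seeded in 1536-well plates, dosed by pin tool the next day, and fixed and stained after 5 days in one step with final 0.05% Triton X-100, 1% formaldehyde and 1 ug/ml Hoechst. Dosing was a single drug or a fixed anchor-drug dose plus five library-drug doses (not always all listed) in √10 steps, and values are medians of duplicate plates imaged at 4×.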

AZ505 + Dasatinib = compound: C1CCC(CC1)N(CCNCCC2=C3C(=C(C=C2)O)NC(=O)CO3)C(=O)CCNCCC4=CC(=C(C=C4)Cl)Cl [AZ505] + Cc1nc(Nc2ncc(C(=O)Nc3c(C)cccc3Cl)s2)cc(N2CCN(CCO)CC2)n1 [Dasatinib] (partner 0.075 µM)
Summary of the method: as §1

AZ505 + Decitabine = compound: C1CCC(CC1)N(CCNCCC2=C3C(=C(C=C2)O)NC(=O)CO3)C(=O)CCNCCC4=CC(=C(C=C4)Cl)Cl [AZ505] + Nc1ncn([C@H]2C[C@H](O)[C@@H](CO)O2)c(=O)n1 [Decitabine] (partner 2 µM)
Summary of the method: as §1

Dactolisib + Alpelisib = compound: Cn1c(=O)n(-c2ccc(C(C)(C)C#N)cc2)c2c3cc(-c4cnc5ccccc5c4)ccc3ncc21 [Dactolisib] + Cc1nc(NC(=O)N2CCC[C@H]2C(N)=O)sc1-c1ccnc(C(C)(C)C(F)(F)F)c1 [Alpelisib] (partner 2 µM)
Summary of the method: as §1

UMC-11
relative viability (AZ505 + Palbociclib; first compound 0.08 µM): 0.303 | relative viability (AZ505 + Palbociclib; first compound 0.253 µM): 0.33 | relative viability (AZ505 + Palbociclib; first compound 0.8 µM): 0.332 | relative viability (AZ505 + Palbociclib; first compound 2.53 µM): 0.337 | relative viability (AZ505 + Palbociclib; first compound 8 µM): 0.321 | relative viability (AZ505 + Dasatinib; first compound 0.08 µM): 0.444 | relative viability (AZ505 + Dasatinib; first compound 0.253 µM): 0.459 | relative viability (AZ505 + Dasatinib; first compound 0.8 µM): 0.458 | relative viability (AZ505 + Dasatinib; first compound 2.53 µM): 0.472 | relative viability (AZ505 + Dasatinib; first compound 8 µM): 0.658 | relative viability (AZ505 + Decitabine; first compound 0.08 µM): 0.742 | relative viability (AZ505 + Decitabine; first compound 0.253 µM): 0.674 | relative viability (AZ505 + Decitabine; first compound 0.8 µM): 0.53 | relative viability (AZ505 + Decitabine; first compound 2.53 µM): 0.52 | relative viability (AZ505 + Decitabine; first compound 8 µM): 0.666 | relative viability (Dactolisib + Alpelisib; first compound 0.002 µM): 0.961 | relative viability (Dactolisib + Alpelisib; first compound 0.006325 µM): 0.852 | relative viability (Dactolisib + Alpelisib; first compound 0.02 µM): 0.63 | relative viability (Dactolisib + Alpelisib; first compound 0.06325 µM): 0.266 | relative viability (Dactolisib + Alpelisib; first compound 0.2 µM): 0.243
